Assay results: patent publication US8383880B2, “Infertility control of genetically modified fish” (Academia Sinica, priority 2009, dated 2013)

Assays:
Tg(AO-eGFP:Ntr) = assay: Fertility assessment, compound transgenic line; assay type: in vivo, zebrafish; settings: Tg(AO-EGFP:Ntr) females, 5 mM Met every other day for 1 week
From the text: (§1) To generate compound transgenic lines, the homozygous transgenic zebrafish of each line, Tg(Asp-eGFP:Ntr), Tg(Odf-eGFP:Ntr), and Tg(Sam-eGFP:Ntr), were then crossed with each other to generate double transgenic fish, Tg(AO-eGFP:Ntr)[Tg(Asp-eGFP:Ntr);Tg(Odf-eGFP:Ntr)], Tg(AS-eGFP:Ntr)[Tg(Asp-eGFP:Ntr);Tg(Sam-eGFP:Ntr)], and Tg(OS-eGFP:Ntr)[Tg(Odf-eGFP:Ntr);Tg(Sam-eGFP:Ntr)] and triple-transgenic fish, Tg(AOS-eGFP:Ntr)[Tg(Asp-eGFP:Ntr; Odf-eGFP:Ntr;Sam-eGFP:Ntr)] for experiments. RT-PCR was performed to test the expression of eGFP:Ntr in the testes of all lines. Animals from each cross were divided into four groups based on genotype. The four groups were then used to assess fertility in response to Met administration.
(§2) Fertility was assessed by pairing each heterozygous transgenic fish with a WT mate. At least 20 transgenic fish were tested for each line, and the numbers of fertile zebrafish were compared with wild-type fish. Each male was assessed with multiple females. Zebrafish were labeled infertile if they were unable to produce offspring over a 4-month period.
(§3) After establishing breeding colonies of these three transgenic lines, Tg(Asp-eGFP:Ntr), Tg(Odf-eGFP:Ntr), and Tg(Sam-eGFP:Ntr), it became clear that the male transgenic fish were at intermediate levels of infertility while the female transgenic fish remained fertile after Met treatment. None of the Met-treated adult males crossed with wild-type females were fully successful in spawning fertilized eggs (Table 1). […] To reach high or full (100%) levels of male infertility in Met-treated transgenic zebrafish lines, we generated compound transgenic lines, Tg(AO-eGFP:Ntr), Tg(AS-eGFP:Ntr), Tg(OS-eGFP:Ntr), and Tg(AOS-eGFP:Ntr) by crossing each other of Tg(Asp-eGFP:Ntr), Tg(Odf-eGFP:Ntr), and Tg(Sam-eGFP:Ntr), then examined male infertility after Met treatment (Table 2). At 4 months of age, Met-treated compound transgenic males had three mediate (76.4%), intermediate high (85.7%), high (95.0%), and full (100%) levels of infertility for Tg(OS-eGFP:Ntr), Tg(AO-eGFP:Ntr), Tg(AS-eGFP:Ntr), and Tg(AOS-eGFP:Ntr), respectively. Met-treated compound transgenic females crossed with wild-type zebrafish remained fertile. No gross abnormalities were apparent in any of the Met-untreated compound transgenic zebrafish lines or Met-treated double transgenic females.

Tg(OS-eGFP:Ntr) = assay: Fertility assessment, compound transgenic line; assay type: in vivo, zebrafish; settings: Tg(OS-EGFP:Ntr) females, 5 mM Met every other day for 1 week
From the text: as §1, §2, §3

Tg(AS-eGFP:Ntr) = assay: Fertility assessment, compound transgenic line; assay type: in vivo, zebrafish; settings: Tg(AS-EGFP:Ntr) females, 5 mM Met every other day for 1 week
From the text: as §1, §2, §3

Tg(AOS-eGFP:Ntr) = assay: Fertility assessment, compound transgenic line; assay type: in vivo, zebrafish
From the text: as §1, §2, §3

Tg(Odf-eGFP:Ntr) = assay: Fertility assessment; assay type: in vivo, zebrafish
Description: as §2
(§4) To assess the fertility of Met-treated transgenic zebrafish lines, Tg(Asp-eGFP:Ntr), Tg(Odf-eGFP:Ntr), and Tg(Sam-eGFP:Ntr) lines were crossed with wild-type zebrafish (100-200 eggs per line; three mating pairs per line). The reproductive parameters were compared with wild-type pairs of the same strain (100-200 eggs per five mating pairs). […] In fact, the infertility of Met-treated Tg(Asp-eGFP:Ntr) transgenic males mated with wild-type female fish increased by over 68.0% compared to that of wild-type. […] However, Met-treated transgenic female lines remained fertile as wild-type female.
as §3

Tg(Asp-eGFP:Ntr) = assay: Fertility assessment; assay type: in vivo, zebrafish
Description: as §2, §4, §3

Wild type = assay: Fertility assessment; assay type: in vivo, zebrafish; settings: 5 mM Met every other day for 1 week; for Female infertility, Met+: Wild type females; for Male infertility, Met+: Wild type males
Description: as §2, §4, §3

Tg(Sam-eGFP:Ntr) = assay: Fertility assessment; assay type: in vivo, zebrafish
Description: as §2, §4, §3

[1] = system: AB strain zebrafish embryos; assay: Tolerable concentration of Mtz for zebrafish (consecutive immersion of embryos); assay type: in vivo; settings: for larvae dead: at 5 dpf
Description: In order to determine the tolerable concentration of Mtz for zebrafish, AB strain zebrafish embryos at the single-cell stage were incubated at 28° C. in a range of Mtz concentrations (0-20 mM). We observed obvious abnormal development of larvae at 3 days postfertilization (dpf). The larvae were dead at 5 dpf after consecutive immersions in […] Mtz (100%, n=26/26) and 20 mM Mtz (100%, n=30/30). The nonspecific death of the larvae was first observed at 6 dpf after consecutive immersions in 10 mM Mtz (23%, n=7/30). In contrast, we observed that no larvae died after at least 10 dpf of consecutive immersion in 5 mM Mtz (0%, n=30). Therefore, the optimal Mtz concentration used in the present experiment was 5 mM.

[2] = system: 14 dpf transgenic embryos; assay: Metronidazole dependent cell ablation, dose response in ablating gonad; assay type: in vivo, zebrafish; settings: 5 mM Met, 14 dpf larvae
Description: Metronidazole (Met, M3761, Sigma) was dissolved in a standard zebrafish embryo medium with vigorous agitation. Embryos were incubated at 28° C. in the dark, and 14-21 dpf transgenic embryos were used to study the dose response of Met in ablating gonad. In initial studies, 14 dpf embryos were incubated in a range of Met concentrations (1-10 mM).

Question: Which “Female infertility, Met+” value (Tg(AO-eGFP:Ntr)) does the source give for Cc1ncc([N+](=O)[O-])n1CCO [Mtz] here?
Answer: Its value is 0/35 (0%).

Question: What about the “Female infertility, Met+” value (Tg(OS-eGFP:Ntr)) of the same molecule?
Answer: The value was 0/34 (0%).

Question: And the “Female infertility, Met+” value (Tg(AS-eGFP:Ntr))?
Answer: The value was 0/40 (0%).

Question: And the “Female infertility, Met+” value (Tg(AOS-eGFP:Ntr); Tg(AOS-EGFP:Ntr) females, 5 mM Met every other day for 1 week)?
Answer: The value was 0/38 (0%).

Question: What about the “lethality in male triple-transgenic fish” value (Tg(AOS-eGFP:Ntr); male Tg(AOS-eGFP:Ntr), 5 mM Met treatment for 1 week, listed as Met) of the same molecule?
Answer: Its value is “occasionally died”.

Question: What about the “infertility increased compared to that of wild type” value (Tg(Odf-eGFP:Ntr); Met-treated Tg(Odf-eGFP:Ntr) males mated with wild-type female) of the same molecule?
Answer: The value was “over 59.1%”.

Question: What about the “Female infertility, Met+” value (Tg(Odf-eGFP:Ntr); Tg(Odf-EGFP:Ntr) females, 5 mM Met every other day for 1 week) of the same molecule?
Answer: The value was 0/22 (0%).

Question: What about the “Male infertility, Met+” value (Tg(Odf-eGFP:Ntr); Tg(Odf-EGFP:Ntr) males, 5 mM Met every other day for 1 week) of the same molecule?
Answer: The value was 13/22 (59.1%).

Question: And the “infertility increased compared to that of wild-type” value (Tg(Asp-eGFP:Ntr); Met-treated Tg(Asp-eGFP:Ntr) males mated with wild-type female)?
Answer: Its value is “over 68.0%”.

Question: And the “Female infertility, Met+” value (Tg(Asp-eGFP:Ntr); Tg(Asp-EGFP:Ntr) females, 5 mM Met every other day for 1 week)?
Answer: Its value is 0/25 (0%).

Question: And the “Male infertility, Met+” value (Tg(Asp-eGFP:Ntr); Tg(Asp-EGFP:Ntr) males, 5 mM Met every other day for 1 week)?
Answer: The value was 17/25 (68.0%).

Question: And the “Female infertility, Met+” value (Wild type; Table 1 (n=28))?
Answer: The value was 0/28 (0%).

Question: And the “Female infertility, Met+” value (Wild type; Table 2 (n=30))?
Answer: Its value is 0/30 (0%).

Question: What about the “Male infertility, Met+” value (Wild type; Table 1 (n=28)) of the same molecule?
Answer: The value was 0/28 (0%).

Question: What about the “Male infertility, Met+” value (Wild type; Table 2 (n=30)) of the same molecule?
Answer: The value was 0/30 (0%).

Question: What about the “infertility increased compared to that of wild type” value (Tg(Sam-eGFP:Ntr); Met-treated Tg(Sam-eGFP:Ntr) males mated with wild-type female) of the same molecule?
Answer: The value was greater than 54.1%.

Question: What about the “Female infertility, Met+” value (Tg(Sam-eGFP:Ntr); Tg(Sam-EGFP:Ntr) females, 5 mM Met every other day for 1 week) of the same molecule?
Answer: Its value is 0/24 (0%).

Question: What about the “Male infertility, Met+” value (Tg(Sam-eGFP:Ntr); Tg(Sam-EGFP:Ntr) males, 5 mM Met every other day for 1 week) of the same molecule?
Answer: The value was 13/24 (54.1%).

Question: And the larvae dead ([1]; 15 nM Mtz, n=26/26)?
Answer: The larvae dead was 100%.

Question: And the larvae died ([1]; 5 mM Mtz, at least 10 dpf, n=30)?
Answer: Its larvae died is 0%.

Question: And the “nonspecific death of the larvae” value ([1]; 10 mM Mtz, first observed at 6 dpf, n=7/30)?
Answer: The value was 23%.

Question: What about the larvae dead ([1]; 20 mM Mtz, n=30/30) of the same molecule?
Answer: The larvae dead was 100%.

Question: And the “deleterious effects on larvae” value [2]?
Answer: The value was “no deleterious effects”.
